Test results reported in US10329249B1, “Sulindac derivatives” (KING SAUD UNIVERSITY, priority 2018, dated 2019).
Marks after values point to notes of the source that are not given here.

Experiments:
[1] = tested on: yeast-induced hyperthermia; assay: Anti-pyretic study, brewer's yeast-induced hyperthermia; type: in vivo, mice; settings: mean ±SEM; for Rectal temperature 30 min: 30 min after drug; for Rectal temperature 30 min / Rectal temperature 60 min / Rectal temperature 120 min: Compound 8 150 mg/kg; for Rectal temperature 30 min / Rectal temperature 60 min / Rectal temperature 120 min / Rectal temperature, Control: Sulindac 100 mg/kg; for Rectal temperature 60 min: 60 min after drug; for Rectal temperature 120 min: 120 min after drug; for Rectal temperature, Control: after yeast injection, pre-drug, groups Compound 8 150 mg/kg; for Rectal temperature, Normal: before yeast, groups later given Compound 8 150 mg/kg or Sulindac 100 mg/kg
Procedure: (§1) All animal experiments used healthy male albino rats (200 g-220 g) and mice. The animals were kept in standard plastic animal cages in groups of six animals each with a 12 hour light and dark cycle. The animals were acclimatized to laboratory conditions for a week prior to the experiments.
In an anti-pyretic study, hyperthermia was induced in mice by subcutaneous injection of 20 mL/kg of a 20% aqueous suspension of brewer's yeast in the back below of nape of the neck. The animals were fasted for 24 hours. Water was made available. Control rectal temperature was recorded 24 hours after the yeast injection to determine the pyretic response to yeast. Rectal temperature recordings were then taken 1 hour prior to drug administration in the fevered animals to serve as a pre drug control. […]

[2] = tested on: acetic acid induced writhing; assay: Analgesic activity by acetic acid induced writhing; type: in vivo, mice; settings: Compound 8 150 mg/kg, Sulindac 100 mg/kg; for % Inhibition (writhing): versus acetic acid group; for Movements (writhing): counted for 20 minutes after i.p. acetic acid, mean ±SEM
Procedure: as §1
In an analgesic activity by writhing study, writhing was induced in mice by intraperitoneal administration of 0.1 mL of 1% acetic acid. The number of writhing movements was counted for 20 minutes. The writhing test was performed after the administration of the vehicle or sulindac derivative compound.

ethanol-induced ulcer = assay: Ulcer study using 80% ethanol (gastric mucosal damage score); type: in vivo, rats; settings: sulindac 100 mg/kg; for Ulcer Index: mean ±SEM; for % Inhibition (ulcer index): Cmpd 8 150 mg/kg, versus 80% EtOH alone
Procedure: as §1
In an ulcer study of sulindac derivatives using 80% ethanol, the ethanol-induced ulcer model was used to study gastro-protective activity of sulindac derivative Compound 8. Rats were grouped into five groups (n=6). Group I received 80% ethanol only and served as an ulcer control. Group II received 80% ethanol and sulindac (100 mg/kg) orally. […] Animals in Group IV received sulindac (100 mg/kg body weight) without any ethanol. […] Animals of all Groups were sacrificed 1 hour later under anesthesia and their stomachs were quickly removed for further studies. The stomach was opened along the greater curvature, washed with distilled water and cleaned gently by dipping in saline. The mucosal damage was assessed according to the following scoring system: redness=0.5, spot ulcer=1.0, hemorrhagic streaks=1.5, ulcer>3 but<5=2.0, ulcers>5=3.0. The mean score of each treated group minus the mean score of the control group was taken as the severity index of gastric mucosal damage. Results were calculated by ANOVA followed by Dunnett's multiple comparison test and are summarized in Table 7, represent mean±SEM; ***=p<0.001 (n=6).

[3] = tested on: carrageenan-induced paw edema; assay: Carrageenan induced paw edema; type: in vivo, rats; settings: Sulindac 100 mg/kg oral; for Paw volume before carrageenan: baseline, groups Compound 8 150 mg/kg, in mL (unit assumed)
Procedure: as §1
In a Carrageenan induced paw edema in rats study, Carrageenan sodium salt (0.05 mL of 1% BDH) was injected into the right hind foot of each rat (male or female, 200-220 g) under the plantar aponeurosis. The test group of was treated orally with a Sulindac derivative compound 1 hour before carrageenan injection. At the same time, the control group was given 5 mL/kg of normal saline and the reference group was given 100 mg/kg of an aqueous solution of sulindac. […] Inhibitory activity was calculated using the following:
[formula] where “B” is the mean paw volume of control rats after carrageenan injection, “Y” is the mean paw volume of control rats before the carrageenan injection, “X” is the mean paw volume of treated rats before carrageenan injection, and “A” is the mean paw volume of treated rats after the carrageenan injection.

Total Protein (TP) = assay: Total protein in gastric juice; type: in vivo, rats; settings: Sulindac 100, Compound 8 150, mean ±SEM
Procedure: Total Protein (TP), or dissolved proteins in gastric juice, was estimated through alcohol precipitation. 90% alcohol was added to gastric juice at a 9:1 ratio, and then 0.1 ml of the alcoholic precipitate of gastric juice was dissolved in 1 ml of 0.1 N NaOH, and 0.05 ml of this suspension was placed in a test tube. 4 ml of an alkaline mixture was then added to the test tube and incubated at room temperature for 10 minutes. 0.4 ml of a phenol reagent was then added, and after a further 10 minutes, once color had developed, a reading was taken against a blank containing distilled water at 610 nm on a spectrophotometer. TP content was then calculated from a standard curve prepared with bovine albumin and expressed as g/L of gastric juice. Results were calculated by ANOVA followed by Dunnett's multiple comparison test and are summarized in Table 9, represent mean±SEM; **=p<0.01; ***=p<0.001 (n=6).

[4] = tested on: non-protein sulfhydryls (NP-SH); assay: Non-protein sulfhydryls in stomach tissue; type: in vivo, rats; settings: Sulindac 100, Compound 8 150, mean ±SEM
Procedure: […] non-protein sulfhydryls (NP-SH) were measured by homogenizing rat stomach tissues in ice cold 0.02 mmol/L ethylenediaminetetraacetic acid (EDTA). Aliquots of 5 mL of the homogenates were mixed in 15 mL test tube with 4 mL of distilled water and 1 mL of 50% trichloroacetic acid (TCA). The test tubes were shaken intermittently for 10 min. and centrifuged at 3000 rpm for 10 min. A total of 2 mL supernatant was mixed with 4 mL of […] tris buffer (pH 8.9). A total of 0.1 mL of 5,5-dithiobis(2-nitrobenzoic acid) ([…]) was added, and the sample was shaken. The absorbance was measured within 5 min. of addition of DTNB at 412 nm and compared to a reagent blank.

[5] = tested on: acute nociception (tail flick); assay: Analgesic study by tail flick method; type: in vivo, mice; settings: Sulindac 100 mg/kg oral; for % Inhibition 30 min / Reaction Time 30 min / % Inhibition 60 min / Reaction Time 60 min / % Inhibition 120 min / Reaction Time 120 min: Compound 8 150 mg/kg; for Reaction Time 30 min / Reaction Time 60 min / Reaction Time 120 min / Reaction Time, Pre-drug: mean ±SEM; for Reaction Time, Pre-drug: pre-drug baseline, groups Compound 8 150 mg/kg
Procedure: as §1
In an analgesic study by tail flick method, acute nociception was assessed using a tail flick apparatus (Tail Flick model DS 20 Sorrel Apelex, France). Briefly, each animal was placed in a restrainer 2 min. before treatment and baseline reaction time was measured by focusing an intensity controlled beam of light on the distal one-third portion of the animal's tail. […] A 10 sec cut off time was used in order to prevent tissue damage.

[6] = with 80% EtOH, Cmpd 8 150 mg/kg oral, sacrificed 1 hour later
[7] = Compound 8 150 mg/kg, mean ±SEM
[8] = 5 hours, Compound 8 150 mg/kg, mean ±SEM

| SMILES | Rectal temperature 30 min [1] | Rectal temperature 60 min [1] | Rectal temperature 120 min [1] | Rectal temperature, Control [1] | Rectal temperature, Normal [1] | % Inhibition (writhing) [2] | Movements (writhing) [2] | Ulcer Index (ethanol-induced ulcer; [6]) | % Inhibition (ulcer index) (ethanol-induced ulcer; with 80% EtOH) | % Inhibition of paw edema after 3 hours ([3]; Compound 8 150 mg/kg) | Increased paw volume after 3 hours, Mean [3, 7] | Increased paw volume after 3 hours, Net [3, 7] | % Inhibition of paw edema after 5 hours ([3]; 5 hours, Compound 8 150 mg/kg) | Increased paw volume after 5 hours, Mean [3, 8] | Paw volume before carrageenan ([3]; mean ±SEM) | TP (Total Protein (TP); drug alone, no ethanol) | TP (Total Protein (TP); with 80% Ethanol 1 mL) | NP-SH ([4]; drug alone, no ethanol) | NP-SH ([4]; with 80% Ethanol 1 mL) | % Inhibition 30 min [5] | further results |
| --- | --- | --- | --- | --- | --- | --- | --- | --- | --- | --- | --- | --- | --- | --- | --- | --- | --- | --- | --- | --- | --- |
| CC1=C(CC(=O)N/N=C\c2ccc(N(C)C)cc2)c2cc(F)ccc2/C1=C\c1ccc([S+](C)[O-])cc1 (stereo not drawn) [Compound 8] | 38.15 ± 0.10 °C | 37.83 ± 0.15 °C | 37.33 ± 0.12 °C | 38.38 ± 0.19 °C | 35.16 ± 0.10 °C | 56.86% | 14.66 ± 0.95 | 4.33 ± 0.4*** | 40.90% | 50.52% | 1.34 ± 0.02 | 0.31 ± 0.03 | 50.54% | 1.33 ± 0.01 | 1.02 ± 0.02 | 114.57 ± 1.89*** g/L | 100.99 ± 2.42*** g/L | 7.52 ± 0.31 nmol/g | 6.62 ± 0.26 nmol/g | 3.33% | Increased paw volume after 5 hours, Net [3, 8]: 0.30 ± 0.02; Reaction Time 30 min [5]: 4.83 ± 0.30 s; % Inhibition 60 min [5]: 46.66%; Reaction Time 60 min [5]: 7.33 ± 0.42 s; % Inhibition 120 min [5]: 63.33%; Reaction Time 120 min [5]: 7.16 ± 0.30 s; Reaction Time, Pre-drug [5]: 5.00 ± 0.36 s |
| CC1=C(CC(=O)O)c2cc(F)ccc2/C1=C\c1ccc([S+](C)[O-])cc1 (stereo not drawn) [Sulindac] | 37.46 ± 0.14 °C | 37.16 ± 0.09 °C | 36.23 ± 0.08 °C | 38.21 ± 0.31 °C | 35.21 ± 0.11 °C | 74.01% | 8.83 ± 0.70 | 6.83 ± 0.40 | 6.81% | 65.18% | 1.26 ± 0.03 | 0.22 ± 0.01 | 65.02% | 1.25 ± 0.03 | 1.03 ± 0.03 | 105.78 ± 1.43*** g/L | 93.81 ± 3.05*** g/L | 7.00 ± 0.032 nmol/g | 5.08 ± 0.28 nmol/g | 13.79% | Ulcer Index (ethanol-induced ulcer; drug alone, without ethanol, Compound 8 150 mg/kg oral): 1.33 ± 0.49; Reaction Time 30 min [5]: 5.50 ± 0.34 s; % Inhibition 60 min [5]: 82.75%; Reaction Time 60 min [5]: 8.83 ± 0.79 s; % Inhibition 120 min [5]: 127.58%; Reaction Time 120 min [5]: 11.00 ± 0.57 s; Reaction Time, Pre-drug [5]: 4.83 ± 0.40 s |
